Test results: patent publication US10308637B2 (LifeSci Pharmaceuticals, Inc., priority 2015, dated 2019)

Assay: Contact Assay (percentage inhibition from fluorescence intensity)
Type: biochemical
Procedure: The percentage inhibition was calculated using the following equation:
[formula] where, Mean(BG) is the average value of the fluorescence intensity of the background wells and Mean(PC) is the average value of the fluorescence intensity of the positive control wells.
Table 4 provides the EC50 values of various compounds disclosed herein.

**Q.** For `Cc1cc(N)nc(C)c1CNC(=O)c1cc(CC(N)=O)nc(Cc2ccc3ncc(Cl)cc3c2)c1` [Example 214, N-((6-amino-2,4-dimethylpyridin-3-yl)methyl)-2-(2-amino-2-oxoethyl)-6-((3-chloroquinolin-6-yl)methyl)isonicotinamide], which EC50 is on record?
**A.** Its EC50 is no more than 0.1 µM.

**Q.** Which EC50 does the source give for `Cc1cc(N)nc(C)c1CNC(=O)c1ccnc(Cc2cc3cc(C(F)(F)F)cnc3[nH]2)c1` [Example 215, N-((6-amino-2,4-dimethylpyridin-3-yl)methyl)-2-((5-(trifluoromethyl)-1H-pyrrolo[2,3-b]pyridin-2-yl)methyl)isonicotinamide] here?
**A.** The EC50 was 0.1 to 1 µM.

**Q.** For `Cc1cc(N)nc(C)c1CNC(=O)c1ccnc(Cc2cc(N)c3ncc(Cl)cc3c2)c1` [Example 217, N-((6-amino-2,4-dimethylpyridin-3-yl)methyl)-2-((8-amino-3-chloroquinolin-6-yl)methyl)isonicotinamide], which EC50 is on record?
**A.** Its EC50 is no more than 0.1 µM.

**Q.** Which EC50 does the source give for `Cc1cc(N)nc(C)c1CNC(=O)c1ccnc(Cc2cc(C(C)(C)O)c3ncc(Cl)cc3c2)c1` [Example 219, N-((6-amino-2,4-dimethylpyridin-3-yl)methyl)-2-((3-chloro-8-(2-hydroxypropan-2-yl)quinolin-6-yl)methyl)isonicotinamide] here?
**A.** Its EC50 is no more than 0.1 µM.

**Q.** With `Cc1nc(N)ccc1CNC(=O)c1ccnc(Cc2cc(C(C)(C)O)c3ncc(Cl)cc3c2)c1` [Example 220, N-((6-amino-2-methylpyridin-3-yl)methyl)-2-((3-chloro-8-(2-hydroxypropan-2-yl)quinolin-6-yl)methyl)isonicotinamide] as the compound, how does the EC50 read?
**A.** The EC50 was no more than 0.1 µM.

**Q.** For `CC(C)(O)c1cc(Cc2cc(C(=O)NCc3cc4c(Cl)c[nH]c4cc3F)ccn2)cc2cc(Cl)cnc12` [Example 221, N-((3-chloro-6-fluoro-1H-indol-5-yl)methyl)-2-((3-chloro-8-(2-hydroxypropan-2-yl)quinolin-6-yl)methyl)isonicotinamide], which EC50 is on record?
**A.** Its EC50 is 0.1 to 1 µM.

**Q.** Which EC50 does the source give for `CC(C)(O)c1cc(Cc2cc(C(=O)NCc3ccc4[nH]cc(Cl)c4c3F)ccn2)cc2cc(Cl)cnc12` [Example 222, N-((3-chloro-4-fluoro-1H-indol-5-yl)methyl)-2-((3-chloro-8-(2-hydroxypropan-2-yl)quinolin-6-yl)methyl)isonicotinamide] here?
**A.** Its EC50 is 0.1 to 1 µM.

**Q.** With `CC(C)(O)c1cc(Cc2cc(C(=O)NCc3cnc4[nH]cc(Cl)c4c3)ccn2)cc2cc(Cl)cnc12` [Example 223, N-((3-chloro-1H-pyrrolo[2,3-b]pyridin-5-yl)methyl)-2-((3-chloro-8-(2-hydroxypropan-2-yl)quinolin-6-yl)methyl)isonicotinamide] as the compound, how does the EC50 read?
**A.** Its EC50 is no more than 0.1 µM.

**Q.** Which EC50 does the source give for `CC(C)(O)c1cc(Cc2cc(C(=O)NCc3ccc4c(N)nccc4c3)ccn2)cc2cc(Cl)cnc12` [Example 224, N-((1-aminoisoquinolin-6-yl)methyl)-2-((3-chloro-8-(2-hydroxypropan-2-yl)quinolin-6-yl)methyl)isonicotinamide] here?
**A.** The EC50 was no more than 0.1 µM.

**Q.** For `CC(C)(O)c1cc(Cc2cc(C(=O)NCc3n[nH]c4ccc(Cl)cc34)ccn2)cc2cc(Cl)cnc12` [Example 225, N-((5-chloro-1H-indazol-3-yl)methyl)-2-((3-chloro-8-(2-hydroxypropan-2-yl)quinolin-6-yl)methyl)isonicotinamide], which EC50 is on record?
**A.** The EC50 was 0.1 to 1 µM.

**Q.** For `Cc1cc(N)nc(C)c1CNC(=O)c1ccnc(Cc2cnc3cc(F)c(Cl)cc3c2)c1` [Example 226, N-((6-amino-2,4-dimethylpyridin-3-yl)methyl)-2-((6-chloro-7-fluoroquinolin-3-yl)methyl)isonicotinamide], which EC50 is on record?
**A.** Its EC50 is no more than 0.1 µM.

**Q.** Which EC50 does the source give for `Cc1cc(N)nc(C)c1CNC(=O)c1ccnc(Cc2ccc3ncc(C(F)(F)F)cc3c2)c1` [Example 228, N-((6-amino-2,4-dimethylpyridin-3-yl)methyl)-2-((3-(trifluoromethyl)quinolin-6-yl)methyl)isonicotinamide] here?
**A.** The EC50 was no more than 0.1 µM.

**Q.** Which EC50 does the source give for `Cc1nc(N)ccc1CNC(=O)c1ccnc(Cc2ccc3ncc(C(F)(F)F)cc3c2)c1` [Example 229, N-((6-amino-2-methylpyridin-3-yl)methyl)-2-((3-(trifluoromethyl)quinolin-6-yl)methyl)isonicotinamide] here?
**A.** The EC50 was no more than 0.1 µM.

**Q.** With `O=C(NCc1cc2c(Cl)c[nH]c2cc1F)c1ccnc(Cc2ccc3ncc(C(F)(F)F)cc3c2)c1` [Example 230, N-((3-chloro-6-fluoro-1H-indol-5-yl)methyl)-2-((3-(trifluoromethyl)quinolin-6-yl)methyl)isonicotinamide] as the compound, how does the EC50 read?
**A.** Its EC50 is 0.1 to 1 µM.

**Q.** Which EC50 does the source give for `O=C(NCc1cnc2[nH]cc(Cl)c2c1)c1ccnc(Cc2ccc3ncc(C(F)(F)F)cc3c2)c1` [Example 231, N-((3-chloro-1H-pyrrolo[2,3-b]pyridin-5-yl)methyl)-2-((3-(trifluoromethyl)quinolin-6-yl)methyl)isonicotinamide] here?
**A.** Its EC50 is 0.1 to 1 µM.

**Q.** Which EC50 does the source give for `Nc1nccc2cc(CNC(=O)c3ccnc(Cc4ccc5ncc(C(F)(F)F)cc5c4)c3)ccc12` [Example 232, N-((1-aminoisoquinolin-6-yl)methyl)-2-((3-(trifluoromethyl)quinolin-6-yl)methyl)isonicotinamide] here?
**A.** Its EC50 is no more than 0.1 µM.

**Q.** With `O=C(NCc1ccc2[nH]cc(Cl)c2c1F)c1ccnc(Cc2ccc3ncc(C(F)(F)F)cc3c2)c1` [Example 234, N-((3-chloro-4-fluoro-1H-indol-5-yl)methyl)-2-((3-(trifluoromethyl)quinolin-6-yl)methyl)isonicotinamide] as the compound, how does the EC50 read?
**A.** Its EC50 is 0.1 to 1 µM.

**Q.** Which EC50 does the source give for `Cc1cc(N)nc(C)c1CNC(=O)c1ccnc(Cc2cc(S(N)(=O)=O)c3ncc(Cl)cc3c2)c1` [Example 235, N-((6-amino-2,4-dimethylpyridin-3-yl)methyl)-2-((3-chloro-8-sulfamoylquinolin-6-yl)methyl)isonicotinamide] here?
**A.** The EC50 was no more than 0.1 µM.

**Q.** For `Cc1nc(N)ccc1CNC(=O)c1ccnc(Cc2cc(S(N)(=O)=O)c3ncc(Cl)cc3c2)c1` [Example 236], which EC50 is on record?
**A.** Its EC50 is no more than 0.1 µM.

**Q.** For `Cc1cc(N)nc(C)c1CNC(=O)c1ccnc(Cc2ccc3nc(C)c(Cl)cc3c2)c1` [Example 238, N-((6-amino-2,4-dimethylpyridin-3-yl)methyl)-2-((3-chloro-2-methylquinolin-6-yl)methyl)isonicotinamide], which EC50 is on record?
**A.** Its EC50 is no more than 0.1 µM.

**Q.** For `Cc1nc2ccc(Cc3cc(C(=O)NCc4ccc(N)nc4C)ccn3)cc2cc1Cl` [Example 239, N-((6-amino-2-methylpyridin-3-yl)methyl)-2-((3-chloro-2-methylquinolin-6-yl)methyl)isonicotinamide], which EC50 is on record?
**A.** The EC50 was 0.1 to 1 µM.

**Q.** With `Cc1cc(N)nc(C)c1CNC(=O)c1ccnc(Cc2cc(CN)c3ncc(Cl)cc3c2)c1` [Example 241, N-((6-amino-2,4-dimethylpyridin-3-yl)methyl)-2-((8-(aminomethyl)-3-chloroquinolin-6-yl)methyl)isonicotinamide] as the compound, how does the EC50 read?
**A.** The EC50 was no more than 0.1 µM.

**Q.** Which EC50 does the source give for `Cc1cc(N)nc(C)c1CNC(=O)c1ccnc(Cc2ccc3ncc(C4CC4)cc3c2)c1` [Example 243, N-((6-amino-2,4-dimethylpyridin-3-yl)methyl)-2-((3-cyclopropylquinolin-6-yl)methyl)isonicotinamide] here?
**A.** The EC50 was no more than 0.1 µM.

**Q.** Which EC50 does the source give for `O=C(NCc1cc2c(Cl)c[nH]c2cc1F)c1ccnc(Cc2ccc3ncc(C4CC4)cc3c2)c1` [Example 245, N-((3-chloro-6-fluoro-1H-indol-5-yl)methyl)-2-((3-cyclopropylquinolin-6-yl)methyl)isonicotinamide] here?
**A.** Its EC50 is 0.1 to 1 µM.

**Q.** Which EC50 does the source give for `O=C(NCc1cnc2[nH]cc(Cl)c2c1)c1ccnc(Cc2ccc3ncc(C4CC4)cc3c2)c1` [Example 246, N-((3-chloro-1H-pyrrolo[2,3-b]pyridin-5-yl)methyl)-2-((3-cyclopropylquinolin-6-yl)methyl)isonicotinamide] here?
**A.** The EC50 was 0.1 to 1 µM.

**Q.** Which EC50 does the source give for `Nc1nccc2cc(CNC(=O)c3ccnc(Cc4ccc5ncc(C6CC6)cc5c4)c3)ccc12` [Example 247, N-((1-aminoisoquinolin-6-yl)methyl)-2-((3-cyclopropylquinolin-6-yl)methyl)isonicotinamide] here?
**A.** Its EC50 is no more than 0.1 µM.

**Q.** Which EC50 does the source give for `O=C(NCc1ccc2[nH]cc(Cl)c2c1F)c1ccnc(Cc2ccc3ncc(C4CC4)cc3c2)c1` [Example 248, N-((3-chloro-4-fluoro-1H-indol-5-yl)methyl)-2-((3-cyclopropylquinolin-6-yl)methyl)isonicotinamide] here?
**A.** The EC50 was 0.1 to 1 µM.

**Q.** With `O=C(NCc1n[nH]c2ccc(Cl)cc12)c1ccnc(Cc2ccc3ncc(C4CC4)cc3c2)c1` [Example 249, N-((5-chloro-1H-indazol-3-yl)methyl)-2-((3-cyclopropylquinolin-6-yl)methyl)isonicotinamide] as the compound, how does the EC50 read?
**A.** The EC50 was 0.1 to 1 µM.

**Q.** With `Cc1nc(N)ccc1CNC(=O)c1ccnc(Cc2cc(CN)c3ncc(Cl)cc3c2)c1` [Example 253, N-((6-amino-2-methylpyridin-3-yl)methyl)-2-((8-(aminomethyl)-3-chloroquinolin-6-yl)methyl)isonicotinamide] as the compound, how does the EC50 read?
**A.** The EC50 was no more than 0.1 µM.

**Q.** For `Cc1cc(N)nc(C)c1CNC(=O)c1ccnc(Cc2ccc3ncc(C(C)C)cc3c2)c1` [Example 254, N-((6-amino-2,4-dimethylpyridin-3-yl)methyl)-2-((3-isopropylquinolin-6-yl)methyl)isonicotinamide], which EC50 is on record?
**A.** The EC50 was no more than 0.1 µM.

**Q.** For `CCCc1cnc2ccc(Cc3cc(C(=O)NCc4c(C)cc(N)nc4C)ccn3)cc2c1` [Example 255, N-((6-amino-2,4-dimethylpyridin-3-yl)methyl)-2-((3-propylquinolin-6-yl)methyl)isonicotinamide], which EC50 is on record?
**A.** The EC50 was no more than 0.1 µM.

**Q.** Which EC50 does the source give for `COc1cnc2ccc(Cc3cc(C(=O)NCc4c(C)cc(N)nc4C)ccn3)cc2c1` [Example 264, N-((6-amino-2,4-dimethylpyridin-3-yl)methyl)-2-((3-methoxyquinolin-6-yl)methyl)isonicotinamide] here?
**A.** Its EC50 is no more than 0.1 µM.

**Q.** For `Cc1cc(N)nc(C)c1CNC(=O)c1ccnc(Cc2cc(-c3nnn[nH]3)c3ncc(Cl)cc3c2)c1` [Example 272, N-((6-amino-2,4-dimethylpyridin-3-yl)methyl)-2-((3-chloro-8-(1H-tetrazol-5-yl)quinolin-6-yl)methyl)isonicotinamide], which EC50 is on record?
**A.** Its EC50 is 0.1 to 1 µM.

**Q.** For `Cc1cc(N)nc(C)c1CNC(=O)c1ccnc(C(O)c2ccc3ncc(Cl)cc3c2)c1` (centres unmarked) [Example 275, N-((6-amino-2,4-dimethylpyridin-3-yl)methyl)-2-((3-chloroquinolin-6-yl)(hydroxy)methyl)isonicotinamide], which EC50 is on record?
**A.** The EC50 was 0.1 to 1 µM.

**Q.** For `Cc1cc(N)nc(C)c1CNC(=O)c1ccnc(C(N)c2ccc3ncc(Cl)cc3c2)c1` (centres unmarked) [Example 276, 2-[Amino-(3-chloro-quinolin-6-yl)-methyl]-N-(6-amino-2,4-dimethyl-pyridin-3-ylmethyl)-isonicotinamide], which EC50 is on record?
**A.** Its EC50 is 0.1 to 1 µM.
